{"source": "paper PMC11876601", "about": "(Molecular Systems Biology, 2025)", "key": {"GSKA": {"biological_target": "T1, GSKA (Homo sapiens, UniProt P49840)", "T1 construct": "endogenous in cells; host or cells: AsPC-1 lysate", "assay": "Kinobeads competition pulldown in AsPC-1 lysate", "assay_type": "binding", "conditions": "read-out: KDapp", "procedure": "(§1) This was followed by incubation with Kinobeads ε (17.5 µl of settled beads) for 30 min at 4 °C to enrich kinases. […] Enriched proteins were reduced with 50 mM DTT in 8 M urea, 40 mM Tris-HCl, pH 7.4 for 30 min at room temperature, and alkylated with 55 mM chloroacetamide. After reducing the urea concentration to 1–2 M, proteins were digested with trypsin at 37 °C for 16 h. Subsequently, eluted peptides were desalted using SepPak tC18 µElution plates (Waters), freeze-dried by vacuum centrifugation, and stored at −20 °C.\n(§2) For LC-MS/MS, dried peptides were reconstituted in 0.1% formic acid and analyzed on a Dionex Ultimate3000 nano HPLC (Thermo Scientific) coupled to an Orbitrap Fusion Tribrid mass spectrometer (Thermo Scientific), which was run in data-dependent mode. Peptides were first delivered to a trap column (100 µm × 2 cm, packed in-house with Reprosil-Gold C18 ODS-3 5 µm resin, Dr. Maisch, Ammerbuch) and subsequently washed with solvent A0 (0.1% formic acid in HPLC grade water) at 5 µl/min for 10 min. […] For MS2, up to 12 peptide precursors were isolated (isolation width of 1.2 Th) and subjected to HCD fragmentation using 30% normalized collision energy. […] The duration of dynamic exclusion was set to 30 s.\n(§3) Oxidized methionine and N-terminal acetylation were set as variable modification, and cysteine carbamidomethylation was set as fixed modification. Label-free quantification (LFQ) and match-between-runs were enabled. All searches were performed with 1% PSM and protein FDR.\n(§4) Proteins were filtered by potential contaminants, reversed hits and proteins identified only by site. Residual binding of proteins was calculated from LFQ intensities as the ratio between drug doses and vehicle. […] Only kinases quantified with at least 4 unique peptides in the vehicle experiment were considered. Potential targets were further curated through manual inspection of dose-dependent reduction in MS/MS and unique peptide counts."}, "GSKB": {"biological_target": "T2, GSKB (Homo sapiens, UniProt P49841)", "T2 construct": "endogenous in cells; host or cells: AsPC-1 lysate", "assay": "Kinobeads competition pulldown in AsPC-1 lysate", "assay_type": "binding", "conditions": "read-out: KDapp", "procedure": "as §1, §2, §3, §4"}, "BMP2K": {"biological_target": "T3, BMP2K (Homo sapiens, UniProt Q9NSY1)", "T3 construct": "endogenous in cells; host or cells: AsPC-1 lysate", "assay": "Kinobeads competition pulldown in AsPC-1 lysate", "assay_type": "binding", "procedure": "as §1, §2, §3, §4"}, "AAK1": {"biological_target": "T4, AAK1 (Homo sapiens, UniProt Q2M2I8)", "T4 construct": "endogenous in cells; host or cells: AsPC-1 lysate", "assay": "Kinobeads competition pulldown in AsPC-1 lysate", "assay_type": "binding", "procedure": "as §1, §2, §3, §4"}, "CSNK2A2": {"biological_target": "T5, CSNK2A2 (Homo sapiens, UniProt P19784)", "T5 construct": "endogenous in cells; host or cells: AsPC-1 lysate", "assay": "Kinobeads competition pulldown in AsPC-1 lysate", "assay_type": "binding", "procedure": "as §1, §2, §3, §4"}, "ACVR1": {"biological_target": "T6, ACVR1 (Homo sapiens, UniProt Q04771)", "T6 construct": "endogenous in cells; host or cells: AsPC-1 lysate", "assay": "Kinobeads competition pulldown in AsPC-1 lysate", "assay_type": "binding", "procedure": "as §1, §2, §3, §4"}, "ACVR2 (Homo sapiens)": {"biological_target": "T7, ACVR2 (Homo sapiens)", "T7 construct": "endogenous in cells; host or cells: AsPC-1 lysate", "assay": "Kinobeads competition pulldown in AsPC-1 lysate", "assay_type": "binding", "conditions": "read-out: KDapp", "procedure": "as §1, §2, §3, §4"}, "TGFBR2": {"test_system": "TGFBR2", "design": "method as in Klaeger et al. (2017)", "conditions": "lysate 4 cell line mix (Colo205, K-562, MV-4-11, and SK-N-BE(2)), Kinobeads y, ref Klaeger et al. (2017); cited from earlier work"}, "STK3": {"test_system": "STK3", "design": "method as in Klaeger et al. (2017)", "conditions": "STK3, 4 cell line mix lysate, Kinobeads y, ref Klaeger et al. (2017); cited from earlier work"}, "PRKAG1": {"test_system": "PRKAG1", "design": "method as in Klaeger et al. (2017)", "conditions": "lysate 4 cell line mix (Colo205, K-562, MV-4-11, and SK-N-BE(2)), Kinobeads y, ref Klaeger et al. (2017); cited from earlier work"}, "INCENP": {"test_system": "INCENP", "design": "method as in Klaeger et al. (2017)", "conditions": "lysate 4 cell line mix (Colo205, K-562, MV-4-11, and SK-N-BE(2)), Kinobeads y, ref Klaeger et al. (2017); cited from earlier work"}, "PDGFRB": {"test_system": "PDGFRB", "design": "method as in Klaeger et al. (2017)", "conditions": "lysate 4 cell line mix (Colo205, K-562, MV-4-11, and SK-N-BE(2)), Kinobeads y, ref Klaeger et al. (2017); cited from earlier work"}, "MAP3K5 [1]": {"test_system": "MAP3K5", "design": "method as in Klaeger et al. (2017)", "conditions": "lysate 4 cell line mix (Colo205, K-562, MV-4-11, and SK-N-BE(2)), Kinobeads y, ref Klaeger et al. (2017); cited from earlier work"}, "ERN2": {"test_system": "ERN2", "design": "method as in Klaeger et al. (2017)", "conditions": "ERN2, 4 cell line mix lysate, Kinobeads y, ref Klaeger et al. (2017); cited from earlier work"}, "MAP3K5 [2]": {"test_system": "MAP3K5", "design": "method as in Reinecke et al. (2023)", "conditions": "MAP3K5, 5 cell line mix lysate, Kinobeads ε, ref Reinecke et al. (2023), cited from earlier work"}, "CSNK2B": {"biological_target": "CSNK2B", "conditions": "5 cell line mix lysate, Kinobeads ε, ref Reinecke et al. (2023), cited from earlier work"}, "INSR": {"biological_target": "INSR", "design": "method as in Reinecke et al. (2023)", "conditions": "5 cell line mix lysate, Kinobeads ε, ref Reinecke et al. (2023), cited from earlier work"}, "LCK": {"biological_target": "LCK", "design": "method as in Reinecke et al. (2023)", "conditions": "5 cell line mix lysate, Kinobeads ε, ref Reinecke et al. (2023), cited from earlier work"}, "[3]": {"conditions": "Kinobeads residual binding curve"}}, "note": "Where two headings read alike, the source gives them in different places.", "data": [{"smiles": "Nc1nn2cc(F)cnc2c1C(=O)Nc1cncc(F)c1N1CCC(C(=O)N2CCN(C3COC3)CC2)CC1", "note": "[Gartisertib]", "values": [{"measurement": "Kd", "setting": "GSKA", "result": "< 10", "unit": "nM"}, {"measurement": "Kd", "setting": "GSKB", "result": "< 10", "unit": "nM"}]}, {"smiles": "CNCc1ccc(-c2cc(-c3nc(-c4ccc(S(=O)(=O)C(C)C)cc4)cnc3N)on2)cc1", "note": "[Berzosertib]", "values": [{"measurement": "Kd", "setting": "BMP2K; AsPC-1 lysate, read-out: KDapp", "result": 19.9, "unit": "nM"}, {"measurement": "EC50", "setting": "BMP2K; [3]", "result": 35.7, "unit": "nM"}, {"measurement": "Kd", "setting": "AAK1; AsPC-1 lysate, read-out: KDapp", "result": 19.3, "unit": "nM"}, {"measurement": "EC50", "setting": "AAK1; [3]", "result": 36.7, "unit": "nM"}, {"measurement": "Kd", "setting": "CSNK2A2; AsPC-1 lysate, read-out: KDapp", "result": 219, "unit": "nM"}, {"measurement": "EC50", "setting": "CSNK2A2; [3]", "result": 406, "unit": "nM"}, {"measurement": "Kd", "setting": "ACVR1; AsPC-1 lysate, read-out: KDapp", "result": 0.83, "unit": "nM"}, {"measurement": "EC50", "setting": "ACVR1; [3]", "result": 2.11, "unit": "nM"}, {"measurement": "Kd", "setting": "ACVR2 (Homo sapiens)", "result": "< 1", "unit": "nM"}]}, {"smiles": "C[C@]12O[C@H](C[C@]1(O)CO)n1c3ccccc3c3c4c(c5c6ccccc6n2c5c31)CNC4=O", "note": "[Lestaurtinib]", "values": [{"measurement": "EC50", "setting": "TGFBR2", "result": "[…]"}, {"measurement": "EC50", "setting": "STK3", "result": 39.2, "unit": "nM"}, {"measurement": "EC50", "setting": "PRKAG1", "result": 1400, "unit": "nM"}, {"measurement": "EC50", "setting": "INCENP", "result": 520, "unit": "nM"}, {"measurement": "EC50", "setting": "PDGFRB", "result": "[…]"}, {"measurement": "EC50", "setting": "MAP3K5 [1]", "result": 788, "unit": "nM"}, {"measurement": "EC50", "setting": "ERN2", "result": 373, "unit": "nM"}]}, {"smiles": "COc1cc(N2CCC(N3CCN(C)CC3)CC2)ccc1Nc1ncc(Cl)c(Nc2ccccc2P(C)(C)=O)n1", "note": "[Brigatinib]", "values": [{"measurement": "EC50", "setting": "MAP3K5 [2]", "result": 970, "unit": "nM"}, {"measurement": "pKDapp", "setting": "MAP3K5 [2]", "result": 6.11}, {"measurement": "Kd", "setting": "MAP3K5 [2]; read-out: KDapp", "result": 776, "unit": "nM"}, {"measurement": "Kd", "setting": "CSNK2B; read-out: KDapp", "result": 508, "unit": "nM"}, {"measurement": "EC50", "setting": "CSNK2B", "result": 508, "unit": "nM"}, {"measurement": "pKDapp", "setting": "CSNK2B", "result": 6.29}, {"measurement": "Kd", "setting": "INSR; read-out: KDapp", "result": 1320, "unit": "nM"}, {"measurement": "EC50", "setting": "INSR", "result": 1750, "unit": "nM"}, {"measurement": "pKDapp", "setting": "INSR", "result": 5.88}, {"measurement": "Kd", "setting": "LCK; read-out: KDapp", "result": 963, "unit": "nM"}, {"measurement": "EC50", "setting": "LCK", "result": 2190, "unit": "nM"}, {"measurement": "pKDapp", "setting": "LCK", "result": 6.02}]}]}
